A short description of this series: solubility of Cy 5.5 before and after conjugation with the sulfonated prosthetic compound. Type of series: physicochemical. Conditions: unconjugated precursor. The text has this: This fact confirms that the present invention enables to increase the hydrophilic character of the (bio)molecules conjugated therewith.

For the substance Cy 5.5, the solubility in water result is “water insoluble”.

The record behind these values is patent US10196421B2, “Nucleophile-reactive sulfonated compounds for the (radio)labelling of (bio)molecules; precursors and conjugates thereof” (Advanced Accelerator Applications SA, priority 2012, dated 2019).
